Laboratory results: US20260125375A1 (Pfizer Inc., priority 2022, published 2026)
Where two headings read alike, the source gives them in different places.

Columns and labels:
C-CBL = target: T1, C-CBL (Homo sapiens, UniProt P22681); assay: Jurkat HiBit-IL2 assay (CBL-B KO), reporter cell line expressing C-CBL only; format: cell-based; conditions: geometric mean, read-out: CBL-B KO EC50 (nM) GMean
T1 construct: endogenous in cells; host or cells: Jurkat HiBit-IL2 reporter cells, CBL-B knocked out by CRISPR
From the text: (§1) Jurkat HiBit-IL2 Assay (WT, c-CBL KO, CBL-B KO)
(§2) The purpose of the Jurkat HiBit-IL2 assay is to evaluate the effect of the inhibition of CBL-B and/or C-CBL on TCR/CD28 stimulated interleukin-2 (IL-2) secretion.
(§3) The expression of IL-2 can then be accurately measured by HiBit luciferase assay. Further, C-CBL or CBL-B was knocked out by CRISPR respectively in this Jurkat HiBit-IL2 reporter cell line to create reporter cell line expressing CBL-B only (c-CBL knockout (KO)) or C-CBL only (CBL-B KO).
(§4) All three reporter cell lines were maintained in RPMI-1640 media with GlutaMax, 10% fetal bovine serum, 100 units/ml of penicillin, and 100 μg/ml of streptomycin at 37° C., 5% CO2, at a cell density 1×10e5-2×10e6 viable cells/ml. Serial diluted compounds in DMSO (40 nl/well, final 0.1% DMSO in assay cell culture) were plated into 384-well white-wall clear-bottom cell culture plates. Reporter cells were pelleted and resuspended in fresh cell culture medium to 0.66×10e6 cells/ml and added to the assay plate at 30 μl/well (20,000 cells/well). The cells were incubated with compounds for 1 hour at 37° C., 5% CO2. 10 μl/well of anti-CD3 antibody (OKT3) and anti-CD28 antibody (CD28.2) prediluted in fresh cell culture medium at 4× final concentration (anti-CD3 mAb: 4 μg/ml; anti-CD28 mAb: 8 μg/ml) was added into the cells (final concentration of anti-CD3 mAb: 1 μg/ml; anti-CD28 mAb: 2 μg/ml). The cells were cultured for another 4 hours at 37° C., 5% CO2. The Nano-Glo HiBiT Lytic Reagent was prepared following the manufacturer's protocol. 20 ul/well of the Nano-Glo HiBiT Lytic Reagent was added into the reporter cell culture assay plate and incubated at room temperature (20-25° C.) for 15 minutes. The plates were read on a Perkin-Elmer EnVision plate reader with 0.1 second integration time. Data were normalized to “Fold of Effect” with the anti-CD3 and anti-CD28 antibodies only samples as the baseline activation level and EC50 was calculated. The EC50 (nM) values reported are the geometric means (GMean) of the number of tests conducted.

CBL-B (residues 36-427) = target: T2, CBL-B (residues 36-427) (Homo sapiens, UniProt Q13191); assay: Ligand Displacement Assay (LDA), HTRF competitive binding against BODIPY-labeled fluorescent tracer, CBL-B; conditions: geometric mean of the number of tests, read-out: CBL-B Ki (nM) GMean
T2 construct: Purified CBL-B (residues 36-427) and C-CBL (residues 46-435) proteins from baculovirus-infected insect cells; made in house; host or cells: baculovirus-infected insect cells
In short: (§5)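 Terbium-streptavidin donor on BirA-biotinylated, AviTagged protein from baculovirus-infected insect cells; BODIPY tracer as acceptor. Compound titrations were three-fold and duplicated, […] with 2% DMSO final.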

CBL-B = target: T3, CBL-B (Homo sapiens, UniProt Q13191); assay: Jurkat HiBit-IL2 assay (c-CBL KO), reporter cell line expressing CBL-B only; format: cell-based; conditions: geometric mean, read-out: C-CBL KO EC50 (nM) GMean
T3 construct: endogenous in cells; host or cells: Jurkat HiBit-IL2 reporter cells, C-CBL knocked out by CRISPR
From the text: as §1, §2, §3, §4

C-CBL (residues 46-435) = target: T4, C-CBL (residues 46-435) (Homo sapiens, UniProt P22681); assay: Ligand Displacement Assay (LDA), HTRF competitive binding against BODIPY-labeled fluorescent tracer, C-CBL; conditions: geometric mean of the number of tests, read-out: C-CBL Ki (nM) GMean
T4 construct: Purified CBL-B (residues 36-427) and C-CBL (residues 46-435) proteins from baculovirus-infected insect cells; made in house; host or cells: baculovirus-infected insect cells
T4 sequence (P22681 46-435): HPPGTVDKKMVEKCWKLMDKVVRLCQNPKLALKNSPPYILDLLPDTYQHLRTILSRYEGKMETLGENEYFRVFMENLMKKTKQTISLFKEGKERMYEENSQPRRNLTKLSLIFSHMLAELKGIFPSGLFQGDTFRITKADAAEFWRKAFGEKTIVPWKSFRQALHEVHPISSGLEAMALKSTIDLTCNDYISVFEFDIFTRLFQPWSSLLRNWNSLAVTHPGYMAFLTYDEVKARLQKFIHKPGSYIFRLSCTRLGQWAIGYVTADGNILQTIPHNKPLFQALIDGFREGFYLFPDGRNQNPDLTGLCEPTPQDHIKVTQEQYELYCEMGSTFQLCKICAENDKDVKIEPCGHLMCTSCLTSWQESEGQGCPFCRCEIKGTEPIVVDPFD
In short: as §5

[1] = CBL-B KO (C-CBL only), anti-CD3/anti-CD28 stimulation 4 hours, Table 16a
[2] = CBL-B KO (expressing C-CBL only), Table 16b (further repetition)
[3] = C-CBL KO (expressing CBL-B only), Table 16b (further repetition)
[4] = c-CBL KO (CBL-B only), anti-CD3/anti-CD28 stimulation 4 hours, Table 16a

Compound | EC50 (C-CBL; [1]) [nM] | EC50 (C-CBL; [2]) [nM] | Ki (CBL-B (residues 36-427)) [nM] | EC50 (CBL-B; [3]) [nM] | EC50 (CBL-B; [4]) [nM] | Ki (C-CBL (residues 46-435)) [nM]
C[C@H](N[C@@H]1COC[C@@H]1O)c1nc(C(F)(F)F)cc2c(-c3cccc([C@H](c4nncn4C)C4CCC4)c3)n[nH]c12 (single isomer, unassigned) [Example D20] | 30 | 31 | 1.7 | 11 | 4 | 2.3
CC(C)[C@H]1CNCCN1Cc1nc(C(F)(F)F)cc2c(-c3cccc([C@H](c4nncn4C)C4CCC4)c3)n[nH]c12 [Example D36] |  | 454 | 1.4 | 52 |  | 16.4
C[C@H](CO)N[C@@H](C)c1nc(C(F)(F)F)cc2c(-c3cccc([C@H](c4nncn4C)C4CCC4)c3)n[nH]c12 (single isomer, unassigned) [Example C43] | 912 | 554 | 6.7 | 61 | 51 | 87.7
C[C@H](O)CN[C@H](C)c1nc(C(F)(F)F)cc2c(-c3cccc([C@H](c4nncn4C)C4CCC4)c3)n[nH]c12 (single isomer, unassigned) [Example D18] | 96 | 137 | 1 | 22 | 10 | 9
CC(NCC(C)(C)O)c1nc(C(F)(F)F)cc2c(-c3cccc([C@H](c4nncn4C)C4CCC4)c3)n[nH]c12 (single isomer, unassigned) [Example C117] |  | 794 | 7.9 | 170 |  | 83.6
CC(N[C@H]1CCC[C@@H]1O)c1nc(C(F)(F)F)cc2c(-c3cccc([C@H](c4nncn4C)C4CCCCC4)c3)n[nH]c12 (single isomer, unassigned) [Example C101] |  | 909 | 2.5 | 58 |  | 21
C[C@H](NC[C@@H](C)O)c1nc(C(F)(F)F)cc2c(-c3cccc([C@H](c4nncn4C)C4CCC4)c3)n[nH]c12 (single isomer, unassigned) [Example D25] | 174 | 359 | 6.4 | 101 | 20 | 51.1
C[C@@H](NC(C)(C)CO)c1nc(C(F)(F)F)cc2c(-c3cccc([C@H](c4nncn4C)C4CCC4)c3)n[nH]c12 (single isomer, unassigned) [Example D55] |  | 642 | 4.8 | 80 |  | 76.5
CC(NCCO)c1nc(C(F)(F)F)cc2c(-c3cccc([C@H](c4nncn4C)C4CCC4)c3)n[nH]c12 (single isomer, unassigned) [Example C41] | 327 | 877 | 3.2 | 154 | 42 | 30.1
C[C@H](CO)N[C@H](C)c1nc(C(F)(F)F)cc2c(-c3cccc([C@H](c4nncn4C)C4CCC4)c3)n[nH]c12 (single isomer, unassigned) [Example C44] | 253 | 356 | 2.2 | 60 | 21 | 25
CC(NC[C@H](C)O)c1nccc2c(-c3cccc([C@H](c4nncn4C)C4CCC4)c3)n[nH]c12 (single isomer, unassigned) [Example C124] |  | 3280 | 7.9 | 348 |  | 109
C[C@@H](c1nc(C(F)(F)F)cc2c(-c3cccc([C@H](c4nncn4C)C4CCC4)c3)n[nH]c12)N1CC[C@H]1CO (single isomer, unassigned) [Example D64] |  | 483 | 8.7 | 134 |  | 58
CCC(CC)(CO)N[C@@H](C)c1nc(C(F)(F)F)cc2c(-c3cccc([C@H](c4nncn4C)C4CCC4)c3)n[nH]c12 (single isomer, unassigned) [Example D74] |  | 3400 | 31.5 | 639 |  | 366
CC(NC(=O)[C@H](C)O)c1nc(C(F)(F)F)cc2c(-c3cccc([C@H](c4nncn4C)C4CCC4)c3)n[nH]c12 (single isomer, unassigned) [Example I4] | 852 | 491 | 3.4 | 108 | 48 | 24.3
C[C@H](NC1CCC1)c1nc(C(F)(F)F)cc2c(-c3cccc([C@H](c4nncn4C)C4COC4)c3)n[nH]c12 (single isomer, unassigned) [Example C123, N-{(1ξ)-1-[3-{3-[(ξ)-(4-methyl-4H-1,2,4-triazol-3-yl)(oxetan-3-yl)methyl]phenyl}-5-(trifluoromethyl)-1H-pyrazolo[3,4-c]pyridin-7-yl]ethyl}cyclobutanamine] |  | 1070 | 19.5 | 185 |  | 189
CC(NC(=O)CO)c1nc(C(F)(F)F)cc2c(-c3cccc([C@H](c4nncn4C)C4CCC4)c3)n[nH]c12 (single isomer, unassigned) [Example I2] | 2420 |  | 7.8 |  | 313 | 64.5
C[C@@H](NC1CC[C@H]1O)c1nc(C(F)(F)F)cc2c(-c3cccc([C@H](c4nncn4C)C4CCC4)c3)n[nH]c12 (single isomer, unassigned) [Example D31] | 199 | 258 | 4 | 56 | 16 | 27.3
C[C@@H](CO)N[C@H](C)c1nc(C(F)(F)F)cc2c(-c3cccc([C@H](c4nncn4C)C4CCC4)c3)n[nH]c12 (single isomer, unassigned) [Example D63] |  | 577 | 8.4 | 121 |  | 67
C[C@@H](N[C@H]1CCC[C@@H]1O)c1nc(C(F)(F)F)cc2c(-c3cccc([C@H](c4nncn4C)C4CCC4)c3)n[nH]c12 (single isomer, unassigned) [Example C46] | 392 | 330 | 9.4 | 61 | 36 | 67.8
C[C@H](NC(C)(C)CO)c1nc(C(F)(F)F)cc2c(-c3cccc([C@H](c4nncn4C)C4CCC4)c3)n[nH]c12 (single isomer, unassigned) [Example D17] | 270 | 552 | 1.4 | 43 | 19 | 33.2
C[C@@H](c1nc(C(F)(F)F)cc2c(-c3cccc([C@H](c4nncn4C)C4CCC4)c3)n[nH]c12)N1CC(C)(O)C1 (single isomer, unassigned) [Example D66] |  | 409 | 2.6 | 72 |  | 22.1
CC(NC[C@H](C)O)c1nc(C(F)(F)F)cc2c(-c3cccc([C@H](c4nncn4C)C4CCCCC4)c3)n[nH]c12 (single isomer, unassigned) [Example C100] |  | 1410 | 2.8 | 110 |  | 40.4
